Patent publication US8946298B2, “Plant disease controlling composition and method for controlling plant disease” (Sumitomo Chemical Company, Limited, priority 2010, dated 2015)

Tested on: gray mold fungus (Botrytis cinerea)
Assay: cucumber leaf disk test, preventive value against gray mold
Assay type: in vivo
Conditions: 15° C., four days
Procedure: True leaf of cucumber is punched out with cork borer to 13 mm in diameter to prepare a leaf disk. In 24 well microwell plate that is dispensed with 1 ml 0.8% water agar, the leaf disk is placed such that the upper side of the leaf is in an upward direction. Thereto is added 20 micro liter a testing solution prepared by mixing a dimethyl sulfoxide solution of the present compound (racemate) and a dimethyl sulfoxide solution of iminoctadine trialbesilate to a predetermined concentration to treat the leaf disk.
After confirming that the testing medical solution is dried, conidium of gray mold fungus (Botrytis cinerea) is suspended into potato dextrose broth (DIFCO) in a density of about 10^5 conidium/mL and is then subjected to a spray inoculation. After leaving to stand the leaf disk in a growth chamber set up at 15° C. for four days, an onset area on the leaf is measured and then calculated an onset area rate (hereinafter, referred to as an onset area rate of treated group).
The same operation is carried out with 20 micro liter water instead of 20 micro liter a testing medicine solution to calculate an onset area rate (hereinafter, referred to an onset area rate of non-treated group).
A preventive value is calculated from the above onset area rate of treated group and the onset area rate of non-treated group by the following equation: Preventive value (%)=100×(A−B)/A
A: an onset area rate of treated group
B: an onset area rate of non-treated group
The same operations as described in Test Example 1 are carried out with iminoctadine triacetate instead of iminoctadine trialbesilate, so as to calculate a preventive value.
Also for comparison, the same operations as described in Test Example 1 are carried out with the exception that the testing medicine solution is substituted with a predetermined concentration of each dimethyl sulfoxide solution of the present compound (racemate) or iminoctadine triacetate, so as to calculate respective preventive values.
For comparison, the same operations as described in Test Example 1 are carried out with the exception that the testing medicine solution is substituted with a predetermined concentration of a dimethyl sulfoxide solution of iminoctadine triacetate, so as to calculate a preventive value.

CC(=O)O.CC(=O)O.CC(=O)O.NC(N)=NCCCCCCCCNCCCCCCCCN=C(N)N [iminoctadine triacetate]
preventive value (%) (Table 2, iminoctadine triacetate alone 0.5 ppm): 20% | preventive value (%) (Table 2, iminoctadine triacetate alone 5.0 ppm): 53% | preventive value (%) (Table 3 (Reference Example), iminoctadine triacetate alone 0.5 ppm): 20% | preventive value (%) (Table 3 (Reference Example), iminoctadine triacetate alone 5.0 ppm): 56%
